# In US8241845B2, “Steroid 5α-reductase” (Health Research Inc., priority 2005, dated 2012):
# T1: SRD5AIII (Homo sapiens, UniProt Q9H8P0)
# T1 construct: expressed in transfected cells; host or cells: CV-1 (monkey kidney) cells infected with Ad-SRD5AIII; cell-free homogenate
# T1 sequence (Q9H8P0 1-318): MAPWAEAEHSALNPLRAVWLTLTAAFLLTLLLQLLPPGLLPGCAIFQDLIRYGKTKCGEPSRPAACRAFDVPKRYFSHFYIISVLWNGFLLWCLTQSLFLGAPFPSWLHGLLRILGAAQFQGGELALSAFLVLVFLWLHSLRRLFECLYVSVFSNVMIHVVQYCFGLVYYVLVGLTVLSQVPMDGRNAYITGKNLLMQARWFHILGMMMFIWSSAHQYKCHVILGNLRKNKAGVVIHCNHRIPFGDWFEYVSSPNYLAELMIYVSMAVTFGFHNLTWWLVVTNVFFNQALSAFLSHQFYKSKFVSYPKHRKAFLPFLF
# Legend:
# prostate cancer (CaP) [1] = experiment: Treatment of men with prostate cancer (CaP) with SRD5A inhibitors; type: in vivo, human; settings: patients at Roswell Park Cancer Institute
# SRD5A = settings: cited from earlier work
# prostate cancer (CaP) [2] = settings: Thompson et al. 2003; cited from earlier work
# SRD5AIII = target: T1, SRD5AIII; experiment: Recombinant SRD5AIII in vitro assay (conversion of T to DHT, TLC); type: biochemical
# Experimental: Recombinant SRD5AIII in vitro assays. Ad-SRD5AIII infected CV-1 cells and uninfected CV-1 control cells were prepared and assayed for SRD5AIII using methods of Titus et al. (Titus et al. Clin Cancer Res 2005; 11:4365-4371) and Pratis et al. (Pratis et al. J Steroid Biochem Mol Biol 2000; 75:75-82). All steps prior to incubation were carried out at 4° C. SRD5AIII specific activity was expressed in pmol/mg protein/hr using Ad-SRD5AIII infected CV-1 cells.
# Ad-SRD5AIII infected CV-1 cells or uninfected CV-1 cells were homogenized in 0.5 ml ice-cold homogenization buffer (50 mM potassium phosphate [pH 7.4], 0.25M sucrose, 1 mM EDTA, 1 mM dithiothreitol, 1 mM fresh phenylmethylsulfonyl chloride, 1× Complete™ protease inhibitor [Roche, Indianapolis, Ind.] using a PowerGen 125 (Fischer Scientific) for two 10-second bursts and sonicated (Branson Sonifier CD200, SmilthKine) at 20% power for 15 one-second bursts. Final homogenates were centrifuged at 500×g for 1 min to remove particulate. The resulting cell free supernatants were placed on ice and used immediately. Protein concentrations were measured using the procedure of Lowry et al. (Lowry et al. J Biol Chem 1951; 193:265-75).
# The buffer for all incubations contained 100 mM Tris-citrate, 0.5 mM dithiothreitol, 0.5 mM NADPH and 1 μCi ^3H-testosterone (New England Nuclear, Boston, Mass.). […] Incubations were performed in total volume 250 μl at pH 7.0 and pH 5.0. […]
# The conversion of T to dihydrotestosterone (DHT), androstanedione and androsterone was analyzed using thin layer chromatography (TLC, 33). […] Control incubations were analyzed as described above.
# The amount of radioactive DHT, androstanedione and androsterone was calculated as percent total radioactivity (^3H) recovered from the thin layer chromatography lane. […]
# Anti-6X-His and anti-X-press antibodies were used to evaluate the expression level of 6X-His and X-press-tagged SRD5AIII in infected CV1 cells. […] However, the molecular weight of the detected band was higher than the expected SRD5AIII molecular weight of about 37 kDa. […]
Molecule,"Response in patients, early results (prostate cancer (CaP) [1])",Inhibition of SRD5A activity (SRD5A),Efficacy as treatment for CaP (prostate cancer (CaP) [2]),pH optimum (SRD5AIII),"SRD5AIII enzyme activity (SRD5AIII; pH 5.0, 1 μM T substrate, n=1)","SRD5AIII specific activity after subtracting background activity (SRD5AIII; pH 7.0, 5 μM T substrate, n=3, Ad-SRD5AIII infected CV-1 cell homogenate)"
"C[C@]12C=CC(=O)N[C@@H]1CC[C@@H]1[C@@H]2CC[C@]2(C)[C@@H](C(=O)Nc3cc(C(F)(F)F)ccc3C(F)(F)F)CC[C@@H]12 [dutasteride, Dutasteride]",incomplete remission,neither finasteride nor dutasteride inhibits SRD5A activity completely,,,,
CC(C)(C)NC(=O)[C@H]1CC[C@H]2[C@@H]3CC[C@H]4NC(=O)C=C[C@]4(C)[C@H]3CC[C@]12C [finasteride],,neither finasteride nor dutasteride inhibits SRD5A activity completely,Lack of efficacy,,,
"SRD5AIII: novel steroid 5α-reductase isozyme, 318 amino acids, SEQ ID NO:2 (protein, human) MAPWAEAEHSALNPLRAVWLTLTAAFLLTLLLQLLPPGLLPGCAIFQDLIRYGKTKCGEPSRPAACRAFDVPKRYFSHFYIISVLWNGFLLWCLTQSLFLGAPFPSWLHGLLRILGAAQFQGGELALSAFLVLVFLWLHSLRRLFECLYVSVFSNVMIHVVQYCFGLVYYVLVGLTVLSQVPMDGRNAYITGKNLLMQARWFHILGMMMFIWSSAHQYKCHVILGNLRKNKAGVVIHCNHRIPFGDWFEYVSSPNYLAELMIYVSMAVTFGFHNLTWWLVVTNVFFNQALSAFLSHQFYKSKFVSYPKHRKAFLPFLF",,,,~7.0,not detected,15.6 pmol/mg protein/hour
